# Test results as given in patent publication US8754094B2, “Methods for heat shock protein dependent cancer treatment” (The Research Foundation of State University of New York, priority 2007, dated 2014).
# “Also recorded” adds a separate entry of the source. Residues, ends and D or L forms follow the SMILES beside them. *: point of attachment. Cbz = O=C(OCc1ccccc1)*
# Experiments:
# primary MM cells = assay: MTS survival assay, primary bone-marrow MM tumor cells from patients; assay type: cell-based, human; conditions: FIG. 36C
# Protocol: Primary bone-marrow tumor cells and endothelial progenitor cells (EPCs) were obtained from previously untreated MM patients. That is, 10 ml bone marrow aspirates were collected in BD Vacutainers containing heparin (BD, Franklin, N.J.), and red cells may be removed from MM bone marrow samples using a Red Blood Cell Lysis Buffer (Roche Applied Science, Indianapolis, Ind.) to obtain primary tumor cells in marrow samples consisting of greater than 80% CD138-positive tumor cells, determined by flow cytometry as may be desired. Tumor cells were used for experiments the day they were harvested, and were cultured in the MM cell line medium described above.
# (§1) MAL3-101 (the structure is shown as the final product in FIG. 12, in FIG. 13, and in FIG. 25B), the proteasome inhibitor MG-132 (A.G. Scientific, San Diego, Calif.) and the Hsp90 inhibitor 17-allylamino-17-demethoxygeldanamycin (17-AAG) (Calbiochem/EMD Biosciences, San Diego, Calif.) were dissolved in dimethylsulfoxide (DMSO; Sigma-Aldrich, St. Louis, Mo.), and stored at −20° C. Final concentration of DMSO was 0.03% and this was used to treat control cells. The MM cell lines examined were NCI-H929, RPMI-8226, and U266 (ATCC, Manassas, Va.). Normal peripheral blood mononuclear cells (PBMC) and bone marrow (BM) cells were obtained from StemCell Technologies (Vancouver, Canada). […]
# [1] = MTS survival assay, endothelial progenitor cells (EPCs) from MM patients; assay type: cell-based, human; conditions: human, EPCs of MM patients, FIG. 36C, read-out: reduction of viability of EPCs
# Protocol: (§2) For endothelial progenitor cells (EPC) outgrowth, bone marrow were further separated using Ficoll-Hypaque (Sigma Chemicals, St Louis, Mo.) density-gradient centrifugation and mononuclear cells were cultured (7×10^6 cells/well) in laminin-coated, 6-well plates (Becton Dickinson Labware, Bedford, Mass.) in EndoCult Basal Medium supplemented with 20% fetal bovine serum (StemCell Technologies, Vancouver, Canada) and antibiotics (100 U/ml penicillin G, 100 μg/ml streptomycin) until confluent. […] Outgrown EPCs were identified by the expression of endothelial and progenitor cell surface markers, including von Willebrand factor (a blood glycoprotein involved in coagulation), vascular endothelial-cadherin (where cadherins are a class of transmembrane proteins), vascular endothelial growth factor receptor-2, CD34, and CD133, as well as the absence of the MM marker CD38, determined by immunocytochemistry and flow cytometry. EPCs were passaged when they were 60-70% confluent by trypsin-ethylenediaminetetraacetic acid (EDTA) treatment (Invitrogen, Carlsbad, Calif.) onto 96-well culture plates (BD Biosciences, San Jose, Calif.). […]
# NCI-H929 [2] = assay: Cell cycle analysis by PI staining and FACS, NCI-H929; assay type: cell-based, human; conditions: NCI-H929, 10 μM, within 48 h of culture
# Protocol: Cell cycle analysis of control (DMSO-treated) or MAL3-101-treated NCI-H929 (2×10^5) was assessed by PI staining and FACS analysis of samples. Resulting DNA distributions were analyzed for the proportions of cells in G0/G1 and G2/M phases of the cell cycle after subtractive gating of cell doublets and debris as described in G. Anderson, M. Gries, N. Kurihara, T. Honjo, J. Anderson, V. Donnenberg, A. Donnenberg, I. Ghobrial, M. Y. Mapara, D. Stirling, D. Roodman, S. Lentzsch, Thalidomide derivative CC-4047 inhibits osteoclast formation by down-regulation of PU. 1, Blood 107 (2006) 3098-3105, which is incorporated herein by reference.
# NCI-H929 [3] = assay: Western immunoblotting of caspase-3 and PARP cleavage, NCI-H929; assay type: cell-based, human; conditions: NCI-H929, 10 μM, time course
# Protocol: Whole-cell lysates were prepared using the Mammalian Cell Lysis Kit (Sigma-Aldrich) and analyzed by Western blot analysis as described in the Zhang reference, cited supra, which is incorporated herein by reference. Equal amounts of protein were separated by SDS-PAGE and electrotransferred onto a nylon membrane. Primary antibodies to detect caspase-3 (Cell Signaling Technology, Danvers, Mass.), poly (ADP-ribose) polymerase (PARP; Abcam, Cambridge, Mass.), and β-actin (Sigma Aldrich) were used along with a HP-conjugated goat-anti-mouse polyclonal secondary antibody (BD Biosciences, Franklin Lakes, N.J.). Enhanced chemiluminescence (ECL) substrate (Pierce Biotechnology, Rockford, Ill.) was used for antibody detection.
# [4] = tested on: EPCs from multiple myeloma patients; assay: MTS survival assay, endothelial progenitor cells (EPCs) from MM patients; assay type: cell-based, human; conditions: FIG. 36C
# Protocol: as §2
# [5] = tested on: normal control BM, PBMC, and EPC populations; assay: MTS survival assay, normal control cells; assay type: cell-based; conditions: FIG. 36D
# Protocol: as §1, with “Canada). Primary MM cells and EPCs were from BM aspirates of newly-diagnosed patients following informed consent. MM cells were enriched to >95% CD138^+ cells by positive selection, using anti-CD138 MACS Microbeads according to the manufacturer's instructions (Miltenyi, San Diego, Calif.).” for “Canada).”
# U266 = assay: Growth inhibition of MM cell line U266; assay type: cell-based, human; conditions: U266 compared to NCI-H929
# Protocol: (§3) Viability was estimated according to the following formula: […]
# (§4) Control cells were cultured in DMSO.
# RPMI-8226 = assay: Growth inhibition of MM cell line RPMI-8226; assay type: cell-based, human; conditions: RPMI-8226 compared to NCI-H929
# Protocol: as §3, §4
SMILES,reduction of viability of MM cells extracted from the BM (primary MM cells) [%],cytotoxicity [1] [%],decrease in cells in the G2/M phase (NCI-H929 [2]) [fold],increase in the sub-G0/G1 phase (NCI-H929 [2]) [fold],cleavage of caspase-3 and PARP (NCI-H929 [3]),reduction of viability of EPCs [4] [%],cytotoxicity in normal control cells [5],sensitivity to MAL3-101-induced growth inhibition (U266),sensitivity to MAL3-101-induced growth inhibition (RPMI-8226)
"CC(C)C[C@@H](C=O)NC(=O)[C@H](CC(C)C)NC(=O)[C@H](CC(C)C)NC(=O)OCc1ccccc1 [MG-132, reference compound] (Cbz-Leu-Leu-Leu-aldehyde)",44±10,16 ± 17,,,,,,,
CCCCCCN(C(=O)CCCCCN1C(=O)NC(c2ccc(-c3ccccc3)cc2)C(C(=O)OCc2ccccc2)=C1C)C(C(=O)NCCCC)c1ccc(OCC(=O)OC)c(C(=O)OC)c1 (stereo not shown) [MAL3-101],33±8,,2.5,~3,time-dependent increase in the cleavage of caspase-3 and PARP,10±14,lack of cytotoxicity; also recorded: lack of sensitivity,less sensitive,less sensitive
